Measurements taken from US11180487B2, “Substituted cyanoindoline derivatives as NIK inhibitors” (Janssen Pharmaceutica NV, priority 2016, dated 2021).
Like-named read-outs stand apart in the source and are kept apart here.

How the values were obtained:
[1] = test system: JJN-3 (NIK translocated) multiple myeloma cells; test: Antiproliferative activity on JJN-3 multiple myeloma cells (CellTiter-Glo, 96 hr), Biological Assay C; format: cell-based, human; conditions: JJN-3 (NIK translocated) cells, averaged values, read-out: JJN-3 Proliferation inhibition (IC50 (nM))
How it was run: (§1)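 Growth read-out was CellTiter-Glo luminescence after 96 h compound exposure, given as percent of no-drug control after subtracting a blank of cells read at dosing. Compounds ran as 9-point serial 1:3 dilutions in 0.3% DMSO, duplicate wells, on JJN-3 (15000/well) or KMS12-BM (20000/well) cells in RPMI 1640/10% FCS.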

[2] = test system: P-IKKα levels in L363 (NIK translocated multiple myeloma) cells; test: Effect of compounds on P-IKKα levels in L363 cells (Mesoscale sandwich immuno-assay), Biological Assay B; format: cell-based, human; conditions: 2 hr treatment, averaged values, read-out: Inhibition of pIKKα_L-363 (IC50 (nM))
Experimental: Effect of Compounds on P-IKKα Levels in L363 (NIK Translocated Multiple Myeloma) Cells
All compounds tested were dissolved in DMSO and further dilutions were made in culture medium. Final DMSO concentration was 1% (v/v) in cell assays. The human L363 cells (ATCC) were cultured in RPMI 1640 medium supplemented with GlutaMax and 10% fetal calf serum (PAA). Cells were routinely maintained at densities of 0.2×10^6 cells per ml-1×10^6 cells per ml at 37° C. in a humidified 5% CO2 atmosphere. Cells were passaged twice a week splitting back to obtain the low density. Cells were seeded in 96 well plates (Nunc 167008) at 2×10^6 per ml media in a volume of 75 μl per well plus 25 μl 1 μg/ml recombinant human B-cell activating factor (BAFF/BLyS/TNFSF13B). Seeded cells were incubated at 37° C. in a humidified 5% CO2 atmosphere for 24 hr. Drugs and/or solvents were added (20 μl) to a final volume of 120 μl. Following 2 hr treatment plates were removed from the incubator and cell lysis was achieved by the addition of 30 μl 5× lysis buffer followed by shaking on a plate shaker at 4° C. for 10 min. At the end of this incubation lysed cells were centrifuged at 800×g for 20 min at 4° C. and the lysate was assessed for P-IKKα levels by sandwich immuno-assay carried out in anti-rabbit antibody coated Mesoscale plates. Within an experiment, the results for each treatment were the mean of 2 replicate wells. For initial screening purposes, compounds were tested using an 8 point dilution curve (serial 1:3 dilutions). For each experiment, controls (containing MG132 and BAFF but no test drug) and a blank incubation (containing MG132 and BAFF and 10 μM ADS125117, a test concentration known to give full inhibition) were run in parallel. The blank incubation value was subtracted from all control and sample values. To determine the IC50 a sigmoidal curve was fitted to the plot of % inhibition of control P-IKKα levels versus Log10 compound concentration.
Note: Compounds 237 and 238 were tested at a maximum top concentration of 823 nM.

[3] = test system: KMS12-BM (NIK WT) multiple myeloma cells; test: Antiproliferative activity on KMS12-BM multiple myeloma cells (CellTiter-Glo, 96 hr), Biological Assay C; format: cell-based, human; conditions: averaged values, read-out: KMS-12 Proliferation inhibition (IC50 (nM))
How it was run: as §1

[4] = molecular target: recombinant human NF-kappaB-inducing kinase (NIK/MAP3K14) (Homo sapiens, UniProt Q99558); test: Inhibition of auto-phosphorylation of recombinant human NIK/MAP3K14 activity (AlphaScreen), Biological Assay A; format: biochemical; conditions: averaged values over all measurements on all batches
Chain of recombinant human NF-kappaB-inducing kinase (NIK/MAP3K14) (Q99558 whole entry): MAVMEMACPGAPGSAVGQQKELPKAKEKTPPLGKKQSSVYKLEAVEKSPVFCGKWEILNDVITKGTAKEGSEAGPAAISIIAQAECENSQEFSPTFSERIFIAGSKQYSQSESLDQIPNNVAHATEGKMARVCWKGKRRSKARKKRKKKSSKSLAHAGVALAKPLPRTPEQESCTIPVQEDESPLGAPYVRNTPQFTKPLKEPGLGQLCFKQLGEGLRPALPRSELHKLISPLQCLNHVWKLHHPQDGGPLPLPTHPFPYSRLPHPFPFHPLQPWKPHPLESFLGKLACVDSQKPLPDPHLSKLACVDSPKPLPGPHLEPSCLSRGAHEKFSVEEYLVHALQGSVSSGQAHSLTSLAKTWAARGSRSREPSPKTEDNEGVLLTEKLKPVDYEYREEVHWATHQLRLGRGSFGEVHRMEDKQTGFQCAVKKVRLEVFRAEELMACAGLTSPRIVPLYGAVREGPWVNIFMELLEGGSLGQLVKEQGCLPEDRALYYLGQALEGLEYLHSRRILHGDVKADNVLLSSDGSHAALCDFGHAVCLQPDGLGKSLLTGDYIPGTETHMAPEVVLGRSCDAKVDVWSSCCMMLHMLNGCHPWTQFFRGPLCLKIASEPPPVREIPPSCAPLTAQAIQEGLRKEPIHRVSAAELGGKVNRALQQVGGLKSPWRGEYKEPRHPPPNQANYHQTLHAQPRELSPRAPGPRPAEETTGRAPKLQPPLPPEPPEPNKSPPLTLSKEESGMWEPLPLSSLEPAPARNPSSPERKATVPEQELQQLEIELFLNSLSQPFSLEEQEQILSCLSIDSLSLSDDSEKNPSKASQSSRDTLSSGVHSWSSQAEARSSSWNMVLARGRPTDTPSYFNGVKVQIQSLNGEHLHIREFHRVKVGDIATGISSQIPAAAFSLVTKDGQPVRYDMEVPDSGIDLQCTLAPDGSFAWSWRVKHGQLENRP
How it was run: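 AlphaScreen detection with anti-phospho-IKK Ser176/180 antibody plus Protein A acceptor/glutathione donor beads after 1 h, 25 °C reaction of 0.2 nM GST-tagged kinase, 25 μM ATP and compound. Buffer: 50 mM Tris pH 7.5, MgCl2, EGTA, DTT, vanadate; 1% DMSO. IC50 fitted sigmoidally to % inhibition.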

| Structure (SMILES) | IC50 ([1]; Homo sapiens, JJN-3, 96 h) | IC50 ([2]; Homo sapiens, L-363, 2 h) | IC50 ([3]; Homo sapiens, KMS-12-BM, 96 h) | IC50 [4] | IC50 [1] | IC50 [2] | IC50 [3] |
| --- | --- | --- | --- | --- | --- | --- | --- |
| COc1cc(C(=O)NC2CCOCC2)ccc1Nc1nccc(-c2cc(C#N)c3c(c2)C(C)(CO)CN3)n1 (stereo not drawn) [Compound 21] | 51 nM | 4.5 nM | 891 nM | 2.5 nM | – | – | – |
| Cc1c(NC(=O)C2CCN(C)CC2)cc(Cl)cc1Nc1nccc(-c2cc(C#N)c3c(c2)[C@@](C)(CO)CN3)n1 [Compound 68] | 16 nM | 1.9 nM | 1480 nM | 0.8 nM | – | – | – |
| COc1cc(N2CCC(N(C)C)CC2)c(Cl)cc1Nc1nccc(-c2cc(C#N)c3c(c2)C(C)(CO)CN3)n1 (stereo not drawn) [Compound 22] | 7 nM | 11.5 nM | 631 nM | 2.5 nM | – | – | – |
| CN1CCC(Oc2ccc(C#N)cc2Nc2nccc(-c3cc(C#N)c4c(c3)[C@@](C)(CO)CN4)n2)C(F)C1 (stereo partly drawn) [Compound 230] | 46 nM | 7.7 nM | > 10000 nM | 6.3 nM | – | – | – |
| [2H]C([2H])(O)c1ccc(C)c(Nc2nccc(-c3cc(C#N)c4c(c3)[C@@](C)(CO)CN4)n2)c1 [Compound 150] | 91 nM | 2.2 nM | > 10000 nM | 0.8 nM | – | – | – |
| COc1cc(OCC(=O)N(C)C)c(Cl)cc1Nc1nccc(-c2cc(C#N)c3c(c2)C(C)(C)CN3)n1 [Compound 82] | 22 nM | 5.3 nM | > 10000 nM | 7.6 nM | – | – | – |
| COc1cc(CO)c(Cl)cc1Nc1nccc(-c2cc(C#N)c3c(c2)C(C)(CO)CN3)n1 (stereo not drawn) [Compound 24] | 13 nM | 6 nM | 2820 nM | 4.5 nM | – | – | – |
| CN1CC(F)C(Oc2ccc(C#N)cc2Nc2nccc(-c3cc(C#N)c4c(c3)[C@@](C)(CO)CN4)n2)C1 (stereo partly drawn) [Compound 232] | – | 11.5 nM | > 10000 nM | 5.5 nM | 282 nM | – | – |

Continued by falling IC50 [4], values first:

| IC50 ([1]; Homo sapiens, JJN-3, 96 h) | IC50 ([2]; Homo sapiens, L-363, 2 h) | IC50 ([3]; Homo sapiens, KMS-12-BM, 96 h) | IC50 [4] | IC50 [1] | IC50 [2] | IC50 [3] | Structure (SMILES) |
| --- | --- | --- | --- | --- | --- | --- | --- |
| 102 nM | 2.1 nM | ~4790 nM | 11.2 nM | – | – | – | Cc1ccc(C#N)cc1Nc1nccc(-c2cc(C#N)c3c(c2)[C@@](C)(COC(=O)[C@H](C)N)CN3)n1 [Compound 138] |
| 1230 nM | 91.2 nM | > 10000 nM | 5.4 nM | – | – | – | Cc1ccc(C(=O)NCCN2CCCC2)cc1Nc1nccc(-c2cc(C#N)c3c(c2)[C@@](C)(CO)CN3)n1 [Compound 158] |
| – | – | – | 4.6 nM | 741 nM | 21.4 nM | > 10000 nM | CN1CC(F)C(Oc2ccc(C#N)cc2Nc2nccc(-c3cc(C#N)c4c(c3)[C@@](C)(CO)CN4)n2)C1 (stereo partly drawn) [Compound 233] |
| 58 nM | 4.8 nM | > 10000 nM | 4.3 nM | – | – | – | C[C@]1(CO)CNc2c(C#N)cc(-c3ccnc(Nc4ccc(S(C)(=O)=O)cc4CCC4CC4)n3)cc21 [Compound 2] |
| 759 nM | 20.9 nM | > 10000 nM | 4.2 nM | – | – | – | CNC(=O)c1ccc(C)c(Nc2nccc(-c3cc(C#N)c4c(c3)[C@@](C)(CO)CN4)n2)c1 [Compound 4] |
| 91 nM | 5.9 nM | > 10000 nM | 3.8 nM | – | – | – | CCC(=O)NCC#Cc1cc(C)c(Nc2nccc(-c3cc(C#N)c4c(c3)[C@@](C)(CO)CN4)n2)cc1C#N [Compound 176] |
| 87 nM | 7.9 nM | 2040 nM | 2.7 nM | – | – | – | Cc1cc(C(=O)NC2CCOCC2)ccc1Nc1nccc(-c2cc(C#N)c3c(c2)C(C)(C)CN3)n1 [Compound 78] |
| 29 nM | 1.3 nM | > 10000 nM | 1.8 nM | – | – | – | Cc1cc(CCN2CCOCC2)c(C#N)cc1Nc1nccc(-c2cc(C#N)c3c(c2)[C@@](C)(CO)CN3)n1 [Compound 173] |
| 240 nM | 6.3 nM | > 10000 nM | 1.3 nM | – | – | – | C[C@]1(CO)CNc2c(C#N)cc(-c3ccnc(Nc4cc(C#N)ccc4CO)n3)cc21 [Compound 153] |
| – | – | – | 0.9 nM | 91 nM | 2.8 nM | 5500 nM | Cc1ccc(C#N)cc1Nc1nccc(-c2cc(C#N)c3c(c2)[C@@](C)(CO)CN3)n1 [Compound 134] |
